# System: 282377-053-R-J1-PDC complex spheroid viability
# Experiment: Anticancer human tumor 282377-053-R-J1-PDC patient-derived colon adenocarcinoma cell line growth inhibition [POLQ]
# Conditions: for IC50: curve of first compound; for viability, T/C: stronger effect = lower value
# Summary of the method: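 Three-cell-type spheroids modelling solid tumor plus stroma served as the readout system; POL inhibitors were tested individually and in combination, concentration ranges set by clinical Cmax where known.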
# [1] = second compound 0.0316 µM, first compound 0.0316 µM
# [2] = second compound 0.0316 µM, first compound 0.1 µM
# [3] = second compound 0.0316 µM, first compound 0.316 µM
# [4] = second compound 0.0316 µM, first compound 1 µM
# [5] = second compound 0.0316 µM, first compound 3.16 µM
# [6] = second compound 0.0316 µM, first compound 10 µM
# [7] = second compound 0.1 µM, first compound 0.0316 µM
# [8] = second compound 0.1 µM, first compound 0.1 µM
# [9] = second compound 0.1 µM, first compound 0.316 µM
# [10] = second compound 0.1 µM, first compound 1 µM
# [11] = second compound 0.1 µM, first compound 3.16 µM
# [12] = second compound 0.1 µM, first compound 10 µM
# [13] = second compound 0.316 µM, first compound 0.0316 µM
# [14] = second compound 0.316 µM, first compound 0.1 µM
# [15] = second compound 0.316 µM, first compound 0.316 µM
# [16] = second compound 0.316 µM, first compound 1 µM
# [17] = second compound 0.316 µM, first compound 3.16 µM
# [18] = second compound 0.316 µM, first compound 10 µM
# [19] = second compound 1 µM, first compound 0.0316 µM
# [20] = second compound 1 µM, first compound 0.1 µM
# [21] = second compound 1 µM, first compound 0.316 µM
# [22] = second compound 1 µM, first compound 1 µM
# [23] = second compound 1 µM, first compound 3.16 µM
# [24] = second compound 1 µM, first compound 10 µM
# [25] = second compound 3.16 µM, first compound 0.0316 µM
# [26] = second compound 3.16 µM, first compound 0.1 µM
# [27] = second compound 3.16 µM, first compound 0.316 µM
# [28] = second compound 3.16 µM, first compound 1 µM
# [29] = second compound 3.16 µM, first compound 3.16 µM
# [30] = second compound 3.16 µM, first compound 10 µM
# [31] = second compound 10 µM, first compound 0.0316 µM
# [32] = second compound 10 µM, first compound 0.1 µM
# [33] = second compound 10 µM, first compound 0.316 µM
# [34] = second compound 10 µM, first compound 1 µM
# [35] = second compound 10 µM, first compound 3.16 µM
# [36] = second compound 10 µM, first compound 10 µM
# 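Also: spheroids exposed to compounds for seven days.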
# 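For viability, T/C in this document: 100% = DMSO vehicle control viability.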
smiles,measurement,setting,value
CNCc1ccc(-c2[nH]c3cc(F)cc4c3c2CCNC4=O)cc1 + Cc1cccc(N(C)C(=O)C2C(O)CCN2c2nc(C)cc(C(F)(F)F)c2C#N)c1,IC50,second compound 0.0316 µM,> 10 µM
same,IC50,second compound 0.1 µM,> 10 µM
same,IC50,second compound 0.316 µM,> 10 µM
same,IC50,second compound 1 µM,> 10 µM
same,IC50,second compound 3.16 µM,> 10 µM
same,IC50,second compound 10 µM,> 10 µM
same,"viability, T/C",[1],122%
same,"viability, T/C",[2],89.9%
same,"viability, T/C",[3],135%
same,"viability, T/C",[4],113%
same,"viability, T/C",[5],122%
same,"viability, T/C",[6],144%
same,"viability, T/C",[7],122%
same,"viability, T/C",[8],94.3%
same,"viability, T/C",[9],98.2%
same,"viability, T/C",[10],93%
same,"viability, T/C",[11],134%
same,"viability, T/C",[12],140%
same,"viability, T/C",[13],99.1%
same,"viability, T/C",[14],105%
same,"viability, T/C",[15],87.4%
same,"viability, T/C",[16],98.1%
same,"viability, T/C",[17],113%
same,"viability, T/C",[18],124%
same,"viability, T/C",[19],117%
same,"viability, T/C",[20],98.7%
same,"viability, T/C",[21],105%
same,"viability, T/C",[22],104%
same,"viability, T/C",[23],138%
same,"viability, T/C",[24],129%
same,"viability, T/C",[25],85.9%
same,"viability, T/C",[26],114%
same,"viability, T/C",[27],80.2%
same,"viability, T/C",[28],85.1%
same,"viability, T/C",[29],117%
same,"viability, T/C",[30],150%
same,"viability, T/C",[31],104%
same,"viability, T/C",[32],98.4%
same,"viability, T/C",[33],104%
same,"viability, T/C",[34],103%
same,"viability, T/C",[35],103%
same,"viability, T/C",[36],138%
CNCc1ccc(-c2[nH]c3cc(F)cc4c3c2CCNC4=O)cc1 + COC1C(OC(N)=O)C(O)C(Oc2ccc3c(O)c(NC(=O)c4ccc(O)c(CC=C(C)C)c4)c(=O)oc3c2C)OC1(C)C,IC50,second compound 0.0316 µM,> 10 µM
same,IC50,second compound 0.1 µM,> 10 µM
same,IC50,second compound 0.316 µM,> 10 µM
same,IC50,second compound 1 µM,> 10 µM
same,IC50,second compound 3.16 µM,> 10 µM
same,IC50,second compound 10 µM,> 10 µM
same,"viability, T/C",[1],115%
same,"viability, T/C",[2],118%
same,"viability, T/C",[3],106%
same,"viability, T/C",[4],110%
same,"viability, T/C",[5],130%
same,"viability, T/C",[6],159%
same,"viability, T/C",[7],113%
same,"viability, T/C",[8],106%
same,"viability, T/C",[9],104%
same,"viability, T/C",[10],108%
same,"viability, T/C",[11],122%
same,"viability, T/C",[12],152%
same,"viability, T/C",[13],104%
same,"viability, T/C",[14],98.4%
same,"viability, T/C",[15],96.6%
same,"viability, T/C",[16],100%
same,"viability, T/C",[17],133%
same,"viability, T/C",[18],157%
same,"viability, T/C",[19],102%
same,"viability, T/C",[20],99%
same,"viability, T/C",[21],121%
same,"viability, T/C",[22],103%
same,"viability, T/C",[23],128%
same,"viability, T/C",[24],160%
same,"viability, T/C",[25],98.7%
same,"viability, T/C",[26],111%
same,"viability, T/C",[27],97.6%
same,"viability, T/C",[28],87.4%
same,"viability, T/C",[29],121%
same,"viability, T/C",[30],167%
same,"viability, T/C",[31],107%
same,"viability, T/C",[32],122%
same,"viability, T/C",[33],110%
same,"viability, T/C",[34],106%
same,"viability, T/C",[35],127%
same,"viability, T/C",[36],162%

# — PubChem BioAssay AID1963852 (Molecular Pharmacology Branch, DTP, NCI, 2024)
